Entries after “also recorded” stand apart in the source; their conditions may differ.
Assays:
[1] = system: splenocytes harvested from MBP immunized wild type PL/J mice; test: Cytokine ELISA of supernatant from MBP re-stimulated splenocyte cultures; assay type: cell-based, mouse; details: MBP re-stimulation day 4, GlcNAc 40 mM
Description: Supernatant from spleenocyte cultures used for adoptive transfer EAE at day 4 of stimulation with MBP in the presence or absence of GlcNAc (40 mM) were tested for INFγ levels. Microtiter plates were coated with 50 μl of anti-IFN-γ (1 μg/ml, clone AN-18; eBiosciences) overnight at 4° C. Supernatants were applied at 50 μl/well in duplicate and incubated for 2 hours at room temperature. Captured cytokines were detected using biotinylated anti-IFN-γ (1 μg/ml, clone R4-6A2; eBiosciences) and detected using Avidin Horse Radish Peroxidase (eBiosciences) at 1:500× dilution and o-Phenylenediamine dihydrochloride OPD tablets (Sigma) according to the manufacturer's protocols. […] Colorimetric change was measured at 450 nm on a microplate autoreader (Labsystems).
Supernatant from splenocyte cultures used for adoptive transfer EAE at day 4 of stimulation with MBP in the presence or absence of GlcNAc (40 mM) were tested for IFN-γ and IL-6 levels. […] Captured cytokines were detected using biotinylated anti-IFN-γ (1 μg/ml, clone R4-6A2; eBiosciences) or anti-IL-6 (1 μg/ml, clone MP5-32C11; eBiosciences) and detected using Avidin Horse Radish Peroxidase (eBiosciences) at 1:500× dilution and o-Phenylenediamine dihydrochloride OPD tablets (Sigma) according to the manufacturer's protocols. […] Colorimetric change was measured at 450 nm on a microplate autoreader (Labsystems).

CD3+ T cells = test: Trypan blue exclusion of MBP-stimulated cultures used for adoptive transfer; assay type: cell-based; details: 96 hours incubation, 40 mM added daily
Description: (§1) Adoptive transfer EAE was induced by s.c. immunization of wild type PL/J mice housed in the UCI vivarium with 100 μg of bovine MBP (Sigma) emulsified in Complete Freund's Adjuvant containing 4 mg/ml heat-inactivated Mycobacterium tuberculosis (H37 RA; Difco, Detroit, Mich.) distributed over three spots on the hind flank. Splenocytes were harvested after 11 days and stimulated in vitro with 50 μg/ml MBP in the presence or absence of 40 mM N-Acetyl-D-glucosamine (Sigma) added daily. After 96 hours incubation, CD3^+ T cells were purified by negative selection (R&D Systems) and 3.5×10^6T-cells were injected i.p. into naïve PL/J Mgat5^+/− recipient mice. Trypan blue exclusion determined <3% dead cells under both culture conditions. The mice were scored daily for clinical signs over the next 30 days with the observer blinded to treatment conditions.
(§2) Adoptive transfer EAE was induced by s.c. immunization of wild type PL/J mice housed in the UCI vivarium with 100 μg of bovine MBP (Sigma) emulsified in Complete Freund's Adjuvant containing 4 mg/ml heat-inactivated Mycobacterium tuberculosis (H37 RA; Difco, Detroit, Mich.) distributed over three spots on the hind flank. […] Trypan blue exclusion determined […] dead cells under both culture conditions. Mice were scored daily for clinical signs of EAE over the next 30 days with the observer blinded to treatment conditions.

Jurkat T-cells [2] = test: L-PHA-FITC staining of Jurkat T cells cultured 3 days with monosaccharides, metabolites, Vitamin D3 or glycosidase inhibitors, FACS; assay type: cell-based, human; details: for Mgat5 N-glycans / β1,6GlcNAc-branched N-glycans expression (L-PHA staining): Jurkat T-cells, 3 days culture with supplement
Description: (§3) Mice used for L-PHA staining and quantitative RT-PCR were sex and age matched. […] 129/Sv mice were from an original Mgat5 gene targeted population (28). All other mice (SJL, NOD, Balb/c and B10.S) were obtained from Jackson Laboratories. […] Mouse and Jurkat cells were stained with L-PHA and LEA by first blocking with PBA (2% bovine serum albumin/0.01% azide/PBS) for 10 min at 4° C. and then incubated with 4 μg/ml of L-PHA-FITC (Vector Laboratories Inc.) or 20 μg/ml of LEA-FITC (Sigma) in PBA for 40 min at 4° C. and analyzed by a BD FACSCalihur (BD Pharmingen, San Diego, Calif.). The level of lectin binding was normalized by untreated control and calculated as a percentage (Sample intensity/control intensity-1) %.
(§4) Mice used for L-PHA staining and quantitative RT-PCR were sex and age matched. […] 129/Sv mice were from the original Mgat5 gene targeted population (28). All other mice (SJL, NOD, Balb/c and B10.S) were obtained from Jackson Laboratories. Mouse cells were stained with anti-CD4 (RM4-5), anti-CD8 (53-6.7), anti-CD45R (RA3-6B2) from eBioscience, and L-PHA (4 μg/ml) and LEA (20 μg/ml) from Sigma. […] Jurkat T-cells were cultured in either glutamine free RPMI 1640, 10% FBS, 10 mM/20 mM glucose or glucose/glutamine free DMEM base media supplemented with 10% FBS, 1.5 mM glucose. The indicated monosaccharides and/or metabolites were added daily except glucose which was added only at time zero.

[3] = system: splenocytes harvested from MBP immunized wild type PL/J mice; test: L-PHA and LEA staining of splenocytes from MBP immunized PL/J mice re-stimulated with MBP; assay type: cell-based, mouse; details: MBP re-stimulation 4 days, GlcNAc 40 mM
Description: as §1
as §3, with “(28).” for “(28). All other mice (SJL, NOD, Balb/c and B10.S) were obtained from Jackson Laboratories.”, “The level of lectin binding was normalized by untreated control and calculated as a percentage (Sample intensity/control intensity-1) %.” left out

Jurkat T-cells [4] = test: LEA-FITC staining (poly-N-acetyllactosamine) of Jurkat T cells, FACS; assay type: cell-based, human; details: 3 days culture with supplement
Description: as §3, §4

[5] = system: naïve PL/J Mgat5+/− recipient mice; test: Adoptive transfer EAE; assay type: in vivo, mouse; details: T-cells re-stimulated in vitro with GlcNAc 40 mM, scored 30 days
Description: as §1, §2

Jurkat T-cells [6] = test: MS/MS mass spectroscopy of sugar-nucleotide expression in Jurkat cell lysates; assay type: cell-based, human
Description: Jurkat cell pellets (20×10^6) were resuspended in a cold 300 μl methanol:water (1:1) solution containing maltose as internal standard, vortexed for 10 seconds, and then pipetted into tubes containing 600 μl of chloroform:methanol (C:M) (3:2). Samples were vortexed for 1 minute, and then centrifuged at 14,000 rpm for 5 minutes at 4° C. Supernatants were collected, and an equal volume of C:M (1:1) was added, followed by a second extraction. The pooled aqueous fraction containing the hydrophilic metabolites was dried with a speedvac and stored at −80° C. Prior to injection, the samples were dissolved in 100 μl methanol:water (1:1). […] The metabolites were identified by their transitions in MS/MS, and quantified using the Analyte Software (SCIEX), which measured the area under the curve for the fragment ions corresponding to each parent ion. Quantities for the given substrates are graphed as pmole/min/10^6 cells.
JurkaT-cell pellets (20×10^6) were resuspended in cold 300 μl methanol:water (1:1) solution containing maltose as an internal standard, vortexed for 10 seconds, and then pipetted into tubes containing 600 μl of chloroform:methanol (C:M) (3:2). […] The metabolites were identified by their transitions in MS/MS, and quantified using the Analyte Software (SCIEX), which measured the area under the curve for the fragment ions corresponding to each parent ion. […]

T cell = details: cited from earlier work
EAE = details: mouse, in vivo; cited from earlier work
human PBMCs = test: L-PHA staining of human PBMCs / MS patient T cells; assay type: cell-based
Description: Mononuclear cells were isolated from the blood of subjects using Histopaque-1077™ gradients (Sigma, Saint Louis, Mo.) and cultured in RPMI 1640 medium supplemented with 4 mM glutamine, 1 mM sodium pyruvate, 1% non-essential amino acids, 1% RPMI vitamins, 100 units/ml penicillin, 100 μg/ml streptomycin, and 50 μM […]. T lymphocytes were left unstimulated or were activated for 48 hours with 20 ng/ml anti-CD3 antibody (Biomeda, Foster City, Calif.) or a combination of 20 myelin peptides at […] myelin basic protein (MBP). The myelin peptides were immunodominant peptides from human proteolipid protein (PLP 30-49, PLP 40-60, PLP 95-118, PLP 118-150, PLP-180-189, PLP 185-206), human myelin oligodendrocyte glycoprotein (MOG 38-60, MOG 63-87, MOG 76-100, MOG 89-113, MOG 112-132 and MOG 162-188) and cryptic peptides from MBP (MBP 41-69, MBP 61-79, MBP 121-139 and MBP 131-149) and PLP (PLP 73-104, PLP 145-186, PLP 218-248 and PLP 241-272) that are not normally derived from antigen processing but may be made by extracellular proteolytic activity (57). Whole MBP was isolated from frozen guinea pig spinal cords (Harlan Bioproducts, Indianapolis, Ind.). […] The stained cells were analyzed on a FACScan (BD Biosciences, San Jose, Calif.) using the CellQuest software. […] Background fluorescence was subtracted for each population. […]

hepatoma cells = details: cited from earlier work

SMILES	IL-6 secretion [1]	INFγ production [1]	dead cells (Trypan blue exclusion) (CD3+ T cells)	dead cells (Trypan blue exclusion) (CD3+ T cells; listed as N-Acetyl-D-glucosamine)	Mgat5 N-glycans / β1,6GlcNAc-branched N-glycans expression (L-PHA staining) (Jurkat T-cells [2])	Mgat5 N-glycan / β1,6GlcNAc-branched N-glycans expression in re-stimulated splenocytes [3]	poly-N-acetyllactosamine expression in re-stimulated splenocytes [3]	poly-N-acetyllactosamine expression (LEA staining) (Jurkat T-cells [4])	incidence of EAE following adoptive transfer of T-cells [5]	severity of EAE following adoptive transfer of T-cells [5]	intracellular UDP-GlcNAc levels (Jurkat T-cells [6])	INFγ production (T cell)	T cell activation (T cell)	TH1 differentiation (T cell)	EAE (EAE)	reversal of SW induced downregulation of Mgat5 glycans (Jurkat T-cells [2]; Jurkat T cells with swainsonine)	synergy with anti-CD3 in up-regulating Mgat5 glycan levels (Jurkat T-cells [2]; Jurkat T cells, anti-CD3)	reversal of attenuated Mgat5 N-glycan expression in MS patients (human PBMCs; MS patient T cells)	Mgat5 modified glycan expression (human PBMCs; human PBMCs)	Mgat5 mRNA expression (hepatoma cells)
CC(=O)N[C@H]1C(O)O[C@H](CO)[C@@H](O)[C@@H]1O (stereo partly drawn) [GlcNAc, N-acetyl-D-glucosamine]	promoted	inhibited	< 5%	< 3%	dose dependently increased	doubled; also recorded: increased	doubled; also recorded: increased	dose dependently increased	dramatically reduced	dramatically reduced	dramatically raised	–	–	–	–	–	–	–	–	–
C=C1/C(=C\C=C2/CCC[C@]3(C)[C@@H]([C@H](C)CCCC(C)(C)O)CC[C@@H]23)C[C@@H](O)C[C@@H]1O [Vitamin D3, 1α,25-Dihydroxyvitamin D3]	–	–	–	–	enhanced; also recorded: increases	–	–	–	–	–	–	inhibits	inhibits	inhibits	inhibits	rescued; also recorded: reversed	synergized	reversed	enhanced	up-regulates

From patent US9775859B2, “Methods and compositions for preventing and treating a disease related to glycan dysregulation” (Sinai Health System, priority 2005, dated 2017)
